Assay results reported in US4749683A, “Inhibition of gastric acid secretion with alpha-transforming growth factor” (President and Fellows of Harvard College, priority 1986, dated 1988).
Where “and” joins values, the source holds several entries; their conditions need not be identical. Identical values can stand only once.

System: guinea pig gastric mucosa
Test: Histamine-induced gastric acid secretion of isolated guinea pig gastric mucosa in Ussing chambers, pH stat method
Assay type: cell-based, guinea pigs
Conditions: for Ratio of pre- and post histamine treatment acid secretion (mean SEM): relative to 30 minute period prior to histamine
Description: Unfasted female guinea pigs (205-330 g) were killed by cervical dislocation and the stomachs were removed. The antrum was discarded and the stomach was rinsed clean with several washes of mammalian Ringer's solution at 37° C. The stomach was hemisected along the greater and lesser curvatures and the mucosa was separated from the seromuscularis with a pair of fine forceps. Mucosae from both sides were stretched and separately mounted in Lucite Ussing chambers (diameter 1.6 cm) and the assembled chambers were connected to water jacketted gas-lift incubators. The nutrient (submucosal) surface was bathed in 15 ml of a solution containing: 122 mM NaCl, 25.0 mM NaHCO3, 5.0 mM KCl, […] MgSO4, 2.0 mM CaCl2, 1.0 mM KH2 PO4, 20.0 mM glucose, and 100 ug/ml gentamycin sulphate (Garamycin). The solution was gassed with 95% O2 -5% CO2 bubbled through distilled water which maintained pH at 7.45-7.55. The luminal (mucosal) surface was bathed in 15 ml unbuffered saline (150 mM NaCl) which was gassed with 100% O2 passed through 500 mM NaOH to remove CO2. Gastric acid secretion was measured by the pH stat method. pH was held at 4.5 with a pH stat coupled to an autoburette and acid secretion was determined by the amount of NaOH necessary to maintain pH in the luminal solution. All solutions were maintained at 37° C. with a heated water circulator. Tissues were initially allowed to stabilize in the chambers a minimum of 2 hours. Saline with or without alpha TGF (60 ng/ml final concentration) was then added to the nutrient bath and the basal rate of acid secretion was monitored for 30 minutes. Twenty-one paired sets of tissue specimens from the same animal were employed, one receiving alpha-TGF, the other serving as control. All tissues were then treated with histamine (10^-4 M) and acid secretion was measured for an additional 3 hours. When calculated in terms of absolute levels of acid secretion, differences between control and TGF-treated tissues were significant (p<0.05) at 120, 150, and 180 minutes.

Substance: alpha-transforming growth factor [TGF]
- Ratio of pre- and post histamine treatment acid secretion (mean SEM) (0 min., alpha TGF 60 ng/ml): 1.00 ± 0.00
- Gastric acid secretion (mean ± SEM) (0 time, basal rate before histamine, alpha TGF 60 ng/ml in nutrient bath, n=21): 1.80 ± 0.21 uEq./cm^2 /hr
- Gastric acid secretion (mean ± SEM) (30 min. after histamine 10^-4 M, alpha TGF 60 ng/ml): 2.09 ± 0.24 uEq./cm^2 /hr
- Ratio of pre- and post histamine treatment acid secretion (mean SEM) (30 min., alpha TGF 60 ng/ml): 1.17 ± 0.04
- Effect on the basal rate of acid secretion (30 minutes before histamine, alpha TGF 60 ng/ml): no effect
- Ratio of pre- and post histamine treatment acid secretion (mean SEM) (60 min. (one hour), alpha TGF 60 ng/ml): 1.48 ± 0.11 and 1.49±0.11
- Gastric acid secretion (mean ± SEM) (60 min. after histamine 10^-4 M, alpha TGF 60 ng/ml): 2.62 ± 0.35 uEq./cm^2 /hr
- Gastric acid secretion (mean ± SEM) (90 min. after histamine 10^-4 M, alpha TGF 60 ng/ml): 2.97 ± 0.38 uEq./cm^2 /hr
- Ratio of pre- and post histamine treatment acid secretion (mean SEM) (90 min., alpha TGF 60 ng/ml): 1.67 ± 0.12
- Ratio of pre- and post histamine treatment acid secretion (mean SEM) (120 min. (two hours), alpha TGF 60 ng/ml): 1.68 ± 0.11
- Gastric acid secretion (mean ± SEM) (120 min. after histamine 10^-4 M, alpha TGF 60 ng/ml): 2.97 ± 0.35 uEq./cm^2 /hr
- Gastric acid secretion (mean ± SEM) (150 min. after histamine 10^-4 M, alpha TGF 60 ng/ml): 3.04 ± 0.37 uEq./cm^2 /hr
- Ratio of pre- and post histamine treatment acid secretion (mean SEM) (150 min., alpha TGF 60 ng/ml): 1.73 ± 0.12
- Ratio of pre- and post histamine treatment acid secretion (mean SEM) (180 min. (three hours), alpha TGF 60 ng/ml): 1.81 ± 0.27
- Gastric acid secretion (mean ± SEM) (180 min. after histamine 10^-4 M, alpha TGF 60 ng/ml): 3.16 ± 0.68 uEq./cm^2 /hr
